In paper PMC6015718, “Effect of Polyvalence on the Antibacterial Activity of a Synthetic Peptide Derived from Bovine Lactoferricin against Healthcare-Associated Infectious Pathogens” (BioMed Research International, 2018):
Read-outs that look alike come from different tables or passages of the source. Positions of bridges follow the written chain, without caps; N, C: chain ends. Non-standard residues stand in square brackets, D forms with d. Residues, ends and D or L forms follow the SMILES beside them. Chains are numbered I, II in the order given. No end group written: not given here. Ahx = NCCCCCC(=O)O

Columns and labels:
Assay type in all cases: cell-based
[1] = tested on: Staphylococcus aureus ATCC 33591 (resistant)
From the text: (§1) All microorganisms were purchased from the American Type Culture Collection (ATCC). To determine the antibacterial activity of synthetic peptides against HCAI bacteria, the Staphylococcus aureus strains ATCC 25923 and ATCC 33591 were employed as sensitive and resistant strains, respectively, of a Gram-positive microorganisms species, and Klebsiella pneumoniae ATCC 13883 and ATCC 700603 as sensitive and resistant strains of a Gram-negative species.
(§2) To determine the MBC, an aliquot from each well of the MIC assay was spread onto MHA. After 18 h at 37°C, the concentration that inhibited bacterial growth was determined. Each of these tests was performed four times. MBC was defined as the lowest concentration of peptide that reduced the number of bacteria by 99.9% in vitro [12].

[2] = tested on: Staphylococcus aureus ATCC 25923 (sensitive)
From the text: as §1, §2

[3] = tested on: Klebsiella pneumoniae ATCC 13883 (sensitive)
From the text: as §1, §2

[4] = tested on: Klebsiella pneumoniae ATCC 700603 (resistant)
From the text: as §1, §2

[5] = tested on: Staphylococcus aureus ATCC 25923 (sensitive); remark: listed apart in the source
From the text: as §1
(§3) The antibacterial activity assay for peptides and controls was performed according to the National Committee for Clinical Laboratory Standards method M7-A7 [11]. MIC and MBC values were determined using a broth microdilution and growth inhibition method with some modification. Briefly, MIC assays were performed by liquid inhibition growth assay in an untreated sterile 96-well flat-bottom tissue culture plate. Bacteria were cultured overnight on Mueller-Hinton agar (MHA). Three colonies were transferred to 8 mL of Mueller-Hinton broth (MHB) and incubated at 37°C until the mid-exponential phase of growth. The turbidity of the cultures was measured and adjusted spectrophotometrically to McFarland standard 0.5, then diluted to a final concentration of […]. Synthetic antibacterial peptide candidate stock solutions were diluted to final concentrations per well of 200, 100, 50, 25, 12.5, and 6.25 μM. […]
(§4) Wells containing MHB with bacterial inoculum only served as bacterial growth controls. Additional controls included MHB alone and MHB with ciprofloxacin (CIP) (2 μg/mL) and bacteria as a positive control. The microplate was incubated for 24 h at 37°C, and growth inhibition was examined by monitoring the optical density at 620 nm (OD620). MIC was defined as the lowest peptide concentration that inhibited bacteria growth >90%.

[6] = tested on: Staphylococcus aureus ATCC 33591 (resistant); remark: listed apart in the source
From the text: as §1, §3, §4

[7] = tested on: Klebsiella pneumoniae ATCC 13883 (sensitive); remark: listed apart in the source
From the text: as §1, §3, §4

[8] = tested on: Klebsiella pneumoniae ATCC 700603 (resistant); remark: listed apart in the source
From the text: as §1, §3, §4

[9] = tested on: human erythrocytes; test: Haemolytic activity; details: 6.25-100 μM peptide; human erythrocytes 2% haematocrit in PBS, 2 h 37°C, OD492; n = 2
Procedure: Human erythrocytes collected from the blood samples of healthy humans were harvested by centrifugation for 7 min at 162 ×g and washed three times in phosphate-buffered saline (PBS). The erythrocytes (2% haematocrit in PBS) were incubated with peptide molecules at several concentrations (6.25, 12.5, 25, 50, and 100 μM), for 2 h at 37°C. PBS was used as a negative control, and sterile distilled water was used as a positive control for haemolysis (100% of haemolysis). The plate was subsequently centrifuged at 1459 ×g for 10 min at 4°C. Aliquots of the supernatants of each well (75 μL) were carefully transferred to a new sterile 96-well plate, and haemolytic activity was evaluated by measuring the OD492 using an Asys Expert Plus Microplate reader. The experiments were performed in duplicate, and peptide haemolysis activity was calculated.
Lastly, to evaluate the effects of the peptides on normal human erythrocytes, their haemolysis activity was investigated (Figure 6). The percentage of haemolytic activity on human red blood cells after 2 hours was determined via the standard microtitre dilution method. The peptide concentration is reported as μM.

## CSCC[C@H](NC(=O)[C@H](CCCNC(=N)N)NC(=O)[C@H](Cc1c[nH]c2ccccc12)NC(=O)[C@H](CCC(N)=O)NC(=O)[C@H](Cc1c[nH]c2ccccc12)NC(=O)[C@H](CCCNC(=N)N)NC(=O)[C@H](CCCNC(=N)N)NC(=O)[C@H](CS)NC(=O)[C@H](CCCCN)NC(=O)[C@@H](N)Cc1ccccc1)C(=O)N[C@@H](CCCCN)C(=O)N[C@@H](CCCCN)C(=O)N[C@@H](CC(C)C)C(=O)NCC(=O)N[C@@H](C)C(N)=O [LfcinB reference, reference compound]
[1]; ATCC 33591, 18 h
  MBC: 100 µM
[2]; ATCC 25923, 18 h
  MBC: > 200 µM
[3]; ATCC 13883, 18 h
  MBC: > 200 µM
[4]; ATCC 700603, 18 h
  MBC: > 200 µM
[5]; ATCC 25923, 24 h
  MIC: > 200 µM

## N=C(N)NCCC[C@H](NC(=O)[C@H](Cc1c[nH]c2ccccc12)NC(=O)[C@H](CCC(N)=O)NC(=O)[C@H](Cc1c[nH]c2ccccc12)NC(=O)[C@H](CCCNC(=N)N)NC(=O)[C@@H](N)CCCNC(=N)N)C(=O)NCCCC[C@H](NC(=O)[C@H](CCCNC(=N)N)NC(=O)[C@H](Cc1c[nH]c2ccccc12)NC(=O)[C@H](CCC(N)=O)NC(=O)[C@H](Cc1c[nH]c2ccccc12)NC(=O)[C@H](CCCNC(=N)N)NC(=O)[C@@H](N)CCCNC(=N)N)C(=O)NCCCCCC(=O)N[C@@H](CSSC[C@H](NC(=O)CCCCCNC(=O)[C@H](CCCCNC(=O)[C@H](CCCNC(=N)N)NC(=O)[C@H](Cc1c[nH]c2ccccc12)NC(=O)[C@H](CCC(N)=O)NC(=O)[C@H](Cc1c[nH]c2ccccc12)NC(=O)[C@H](CCCNC(=N)N)NC(=O)[C@@H](N)CCCNC(=N)N)NC(=O)[C@H](CCCNC(=N)N)NC(=O)[C@H](Cc1c[nH]c2ccccc12)NC(=O)[C@H](CCC(N)=O)NC(=O)[C@H](Cc1c[nH]c2ccccc12)NC(=O)[C@H](CCCNC(=N)N)NC(=O)[C@@H](N)CCCNC(=N)N)C(N)=O)C(N)=O [Tetrameric] (I: H-RRWQWRK[Ahx]C-NH2 / II: H-RRWQWRK[Ahx]C-NH2 / III: H-RRWQWR / IV: H-RRWQWR; amide I:7-III:C, II:7-IV:C; disulfide I:9-II:9)
[1]; ATCC 33591, 18 h
  MBC: 12.5 µM
[1]; S. aureus ATCC 33591 resistant, MHA, 18 h 37°C, 99.9% reduction
  MBC: 57 µg/mL
[1]; S. aureus ATCC 33591 resistant, MHA, 18 h 37°C, 99.9% reduction, listed as tetrameric
  MBC: ≥ 57 µg/mL
[1]; S. aureus ATCC 33591 resistant, value in parentheses, MHA, 18 h 37°C, 99.9% reduction
  MBC: ≥ 12.5 µM
[1]; S. aureus resistant strain, from concentrations in μg/mL
  MBC as a function of the MBC of the tetrameric peptide: 1 x MBC
[2]; ATCC 25923, 18 h
  MBC: 12.5 µM
[2]; S. aureus ATCC 25923 sensitive, MHA, 18 h 37°C, 99.9% reduction, average of four independent experiments
  MBC: 57 µg/mL
[2]; S. aureus ATCC 25923 sensitive, MHA, 18 h 37°C, 99.9% reduction, average of four independent experiments, listed as tetrameric
  MBC: ≥ 57 µg/mL
[2]; S. aureus ATCC 25923 sensitive, value in parentheses, MHA, 18 h 37°C, 99.9% reduction
  MBC: ≥ 12.5 µM
[2]; S. aureus sensitive strain, from concentrations in μg/mL
  MBC as a function of the MBC of the tetrameric peptide: 1 x MBC
[3]; ATCC 13883, 18 h
  MBC: 25 µM
[3]; K. pneumoniae ATCC 13883 sensitive, MHA, 18 h 37°C, 99.9% reduction
  MBC: 115 µg/mL
[3]; K. pneumoniae ATCC 13883 sensitive, MHA, 18 h 37°C, 99.9% reduction, listed as tetrameric
  MBC: ≥ 115 µg/mL
[3]; K. pneumoniae ATCC 13883 sensitive, value in parentheses, MHA, 18 h 37°C, 99.9% reduction
  MBC: ≥ 25 µM
[3]; K. pneumoniae sensitive strain, from concentrations in μg/mL
  MBC as a function of the MBC of the tetrameric peptide: 1 x MBC
[4]; ATCC 700603, 18 h
  MBC: 25 µM
[4]; K. pneumoniae ATCC 700603 resistant, MHA, 18 h 37°C, 99.9% reduction
  MBC: 115 µg/mL
[4]; K. pneumoniae ATCC 700603 resistant, MHA, 18 h 37°C, 99.9% reduction, listed as tetrameric
  MBC: ≥ 115 µg/mL
[4]; K. pneumoniae ATCC 700603 resistant, value in parentheses, MHA, 18 h 37°C, 99.9% reduction
  MBC: ≥ 25 µM
[4]; K. pneumoniae resistant strain, from concentrations in μg/mL
  MBC as a function of the MBC of the tetrameric peptide: 1 x MBC
[6]; ATCC 33591, 24 h
  MIC: 12.5 µM
[6]; S. aureus ATCC 33591 resistant, MHB, 24 h 37°C, OD620, >90% inhibition, average of four independent experiments in duplicate
  MIC: 57 µg/mL
[6]; S. aureus ATCC 33591 resistant, MHB, 24 h 37°C, OD620, >90% inhibition, average of four independent experiments in duplicate, listed as tetrameric
  MIC: ≥ 57 µg/mL
[6]; S. aureus ATCC 33591 resistant, value in parentheses, MHB, 24 h 37°C, OD620, >90% inhibition
  MIC: ≥ 12.5 µM
[5]; ATCC 25923, 24 h
  MIC: 6.25 µM
[5]; S. aureus ATCC 25923 sensitive, MHB, 24 h 37°C, OD620, lowest concentration inhibiting growth >90%, average of four independent experiments in duplicate
  MIC: 29 µg/mL
[5]; S. aureus ATCC 25923 sensitive, MHB, 24 h 37°C, OD620, lowest concentration inhibiting growth >90%, average of four independent experiments in duplicate, listed as tetrameric
  MIC: ≥ 29 µg/mL
[5]; S. aureus ATCC 25923 sensitive, value in parentheses, MHB, 24 h 37°C, OD620, >90% inhibition, average of four independent experiments in duplicate
  MIC: ≥ 6.25 µM
[5]; S. aureus sensitive strain, Figure 2
  concentration at which antibacterial activity was displayed (dose-response profile): ≥ 29 µg/mL
[7]; ATCC 13883, 24 h
  MIC: 6.25 µM
[7]; K. pneumoniae ATCC 13883 sensitive, MHB, 24 h 37°C, OD620, >90% inhibition, average of four independent experiments in duplicate
  MIC: 29 µg/mL
[7]; K. pneumoniae ATCC 13883 sensitive, MHB, 24 h 37°C, OD620, >90% inhibition, average of four independent experiments in duplicate, listed as tetrameric
  MIC: ≥ 29 µg/mL
[7]; K. pneumoniae ATCC 13883 sensitive, value in parentheses, MHB, 24 h 37°C, OD620, >90% inhibition
  MIC: ≥ 6,25 µM
[8]; ATCC 700603, 24 h
  MIC: 12.5 µM
[8]; K. pneumoniae ATCC 700603 resistant, MHB, 24 h 37°C, OD620, >90% inhibition, average of four independent experiments in duplicate
  MIC: 57 µg/mL
[8]; K. pneumoniae ATCC 700603 resistant, MHB, 24 h 37°C, OD620, >90% inhibition, average of four independent experiments in duplicate, listed as tetrameric
  MIC: ≥ 57 µg/mL
[8]; K. pneumoniae ATCC 700603 resistant, value in parentheses, MHB, 24 h 37°C, OD620, >90% inhibition
  MIC: ≥ 12,5 µM

## RWQWRWQWR [Palindromic]
[1]; ATCC 33591, 18 h
  MBC: 50 µM
[2]; ATCC 25923, 18 h
  MBC: 100 µM
[3]; ATCC 13883, 18 h
  MBC: 100 µM
[4]; ATCC 700603, 18 h
  MBC: 100 µM
[6]; ATCC 33591, 24 h
  MIC: 6.25 µM
[5]; ATCC 25923, 24 h
  MIC: 50 µM
[7]; ATCC 13883, 24 h
  MIC: 50 µM
[8]; ATCC 700603, 24 h
  MIC: 50 µM

## RRWQWR-NH2 [Motif]
[9]
  haemolysis activity over the concentrations tested: no haemolysis activity
[2]; ATCC 25923, 18 h
  MBC: > 200 µM
[3]; ATCC 13883, 18 h
  MBC: > 200 µM
[4]; ATCC 700603, 18 h
  MBC: > 200 µM
